Reference: patent US11833137B2, “Substituted chromenones, IRE1 inhibitors, and methods of using same” (The Wistar Institute, priority 2018, dated 2023)

Key:
[1] = Fluorescence stability (decomposition) in aqueous solution; assay type: physicochemical; settings: PBS with 1% DMSO, 37° C., 48 h, from 100%
Protocol: (FIG. 2B) 5TGM1 cells were treated with DMSO or with 20 μM 2, 4, 3, or 7 dissolved in DMSO for 3 days and subjected to XTT assays. Percentages of growth were determined by comparing treated groups with control groups (DMSO). Each data point derived from four independent groups receiving exactly the same treatment was plotted as mean±SD. Results are representative of three independent experiments. […] The values of I/I0 were plotted as a function of time and shown in the inset. I0 was the initial fluorescence intensity of 4 at 0 h. […] The values of I/I0 were plotted as a function of time and shown in the inset. I0 was the initial fluorescence intensity of 5 at 0 h. […] (FIG. 2G) The decomposition rates of 7 and 8 were plotted as a function of time in RPMI media incubated at 37° C. Aliquots were analyzed by HPLC and the peaks integrated.
FIGS. 5A-5J illustrate the finding that installation of a boronate cage cleavable by H2O2 stabilizes the 1,3-dioxane acetal protective group of D-F07 to allow for temporal inhibition of XBP-1s upon contact with H2O2. (FIG. 5A) A scheme showing that installation of a boronate-caged group stabilizes the 1,3-dioxane acetal protective group to allow for H2O2-mediated release of intact D-F07. (FIG. 5B) The fluorescence of BC-D-F07a (2.5 μM in the DMSO/PBS solution (v/v=1:99), Ex=360 nm) increases upon incubation with 0 to 200 μM hydrogen peroxide at room temperature for 1 h. (FIG. 5C) The fluorescence of BC-D-F07b (2.5 μM in the DMSO/PBS solution (v/v=1:99), Ex=360 nm) increases upon incubation with 0 to 2 mM hydrogen peroxide at 37° C. for 1 h. […] I0 was the initial fluorescence intensity of D-F07, BC-D-F07a or BC-D-F07b at 0 h. (FIG. 5E) The levels of hydrogen peroxide produced by 5TGM1, 72-h LPS-stimulated primary CLL, MEC2, and WaC3 cells were measured by Amplex Red with or without the addition of extracellular catalase (500 U/mL). (FIG. 5F) 5TGM1 cells were treated with BC-D-F07a at increasing concentrations for 24 h, lysed, and analyzed for the expression of indicated proteins by immunoblots. (FIG. 5G) CD5+ CLL cells purified from spleens of Eμ-TCL1 mice were stimulated with […], subsequently treated with BC-D-F07a at 20 μM for 16 h, and then incubated with hydrogen peroxide at indicated concentrations for another 4 h. Cells were lysed and analyzed for the expression of indicated proteins by immunoblots. […] Cells were lysed and analyzed for the expression of indicated proteins by immunoblots. […] Percentages of growth were determined by comparing treated groups with control groups (DMSO). […]
UV-vis and fluorescence spectra were carried out on a BioTek SYNERGY™ NEO2 instrument (96 well plate).

[2] = tested on: XBP-1s expression, CD5+ CLL cells from Eμ-TCL1 mice; settings: cited from earlier work
5TGM1 cells = test: Cell proliferation XTT assay, 5TGM1; assay type: cell-based, mouse; settings: 20 μM for a course of 3 days
Protocol: 5TGM1 cells were suspended in phenol red-free RPMI media, seeded in 96-well cell culture plates, and treated with indicated IRE1 inhibitors (20 μM, unless indicated otherwise). At indicated time points, cells were spun down and cell proliferation was assessed by XTT assays (Roche) according to the manufacturer's instructions. Briefly, 50 μl XTT labeling reagent, 1 μl electron-coupling reagent, and 100 μl phenol red-free RPMI media were combined and applied to each well of the 96-well plates. Cells were incubated for 4 h in a CO2 incubator to allow for the yellow tetrazolium salt XTT to be cleaved by mitochondrial dehydrogenases of metabolically active cells to form the orange formazan dye, which can be quantified at 492 nm using a BioTek SYNERGY™ NEO2 Multimode Reader.

CLL = settings: mouse, in vivo; cited from earlier work
secretory IgM, B cells = settings: cited from earlier work
WaC3 cells = settings: cited from earlier work

In the case of `O=c1oc2c(C3OCCCO3)c(O)ccc2c2c1CNCC2` [Compound 4, 7-(1,3-dioxan-2-yl)-8-hydroxy-1,2,3,4-tetrahydro-5H-chromeno[3,4-c]pyridin-5-one], the “fluorescence intensity remaining (decomposition)” value [1] is given as 5.1%, the “expression of XBP-1s in CLL cells” value [2] is given as “can inhibit the expression of XBP-1s in CLL cells” and the “growth inhibition / cytotoxicity (XTT)” value (5TGM1 cells) is given as “more potent than their respective aldehyde counterparts”. For the same compound, the “growth of CLL” value (CLL) was “retard the growth of CLL”, the “production of sIgM by treated B cells” value (secretory IgM, B cells) was “inefficient in producing sIgM” and the “sensitivity of WaC3 cells” value (WaC3 cells) was “sensitive”.
